In PubChem BioAssay AID248 (DTP/NCI, 2004):
Where “and” joins values, the source holds several entries; their conditions need not be identical. Equal entries are not always repeated. Inconclusive results and toxic doses are left out. Rule as the data show it: active = T/C of 150% or more; inactive = T/C below 125%.

System: L1210 leukemia ip in BDF1 mice, survival T/C
Assay: NCI In Vivo Anticancer Drug Screen. Data for tumor model L1210 Leukemia (intraperitoneal) in B6D2F1 (BDF1) mice
Settings: endpoint: mean survival time, higher = longer survival
Procedure, shortened: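 Antitumor effect is assessed in tumor-bearing animals. Survival in the compound arm is compared with a vehicle-dosed control arm and expressed as their quotient.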

[1] = dose: 50.0 mg/kg/injection, schedule: Q01DX009 (ip), vehicle: Klucel (hydroxypropylcellulose) (HPC)
[2] = dose: 100.0 mg/kg/injection, schedule: Q01DX009 (ip), vehicle: Klucel (hydroxypropylcellulose) (HPC)
[3] = dose: 100.0 mg/kg/injection, schedule: Q04DX003 (ip), vehicle: Klucel (hydroxypropylcellulose) (HPC)
[4] = dose: 200.0 mg/kg/injection, schedule: Q01DX009 (ip), vehicle: Klucel (hydroxypropylcellulose) (HPC)
[5] = dose: 200.0 mg/kg/injection, schedule: Q04DX003 (ip), vehicle: Klucel (hydroxypropylcellulose) (HPC)
[6] = dose: 100.0 mg/kg/injection, schedule: Q01DX001 (ip), vehicle: saline
[7] = dose: 100.0 mg/kg/injection, schedule: Q04DX003 (ip), vehicle: saline
[8] = dose: 200.0 mg/kg/injection, schedule: Q04DX003 (ip), vehicle: saline
[9] = dose: 400.0 mg/kg/injection, schedule: Q04DX003 (ip), vehicle: saline
[10] = dose: 100.0 mg/kg/injection, schedule: Q01DX009 (ip), vehicle: saline
[11] = dose: 200.0 mg/kg/injection, schedule: Q01DX009 (ip), vehicle: saline
[12] = dose: 400.0 mg/kg/injection, schedule: Q01DX009 (ip), vehicle: saline
[13] = dose: 12.5 mg/kg/injection, schedule: Q01DX009 (ip), vehicle: saline
[14] = dose: 25.0 mg/kg/injection, schedule: Q01DX009 (ip), vehicle: saline
[15] = dose: 50.0 mg/kg/injection, schedule: Q01DX009 (ip), vehicle: saline
[16] = dose: 3.12 mg/kg/injection, schedule: Q01DX009 (ip), vehicle: saline
[17] = dose: 6.25 mg/kg/injection, schedule: Q01DX009 (ip), vehicle: saline

Measured: T/C

CN1C(=O)CCS(=O)(=O)C1c1ccc(Cl)c(Cl)c1 (stereo not given)
inactive: dose: 12.5 mg/kg/injection, schedule: Q01DX009 (ip), vehicle: Klucel (hydroxypropylcellulose) (HPC) 101 % of control | dose: 25.0 mg/kg/injection, schedule: Q01DX009 (ip), vehicle: Klucel (hydroxypropylcellulose) (HPC) 114 % of control | dose: 25.0 mg/kg/injection, schedule: Q04DX003 (ip), vehicle: Klucel (hydroxypropylcellulose) (HPC) 105 % of control | [1] 103 % of control | dose: 50.0 mg/kg/injection, schedule: Q04DX003 (ip), vehicle: Klucel (hydroxypropylcellulose) (HPC) 100 % of control | [2] 110 % of control | [3] 105 % of control | [4] 104 % of control | [5] 108 % of control

Cc1ccc(O)c[n+]1[O-]
inactive: [6] 94 % of control | [2] 103 % of control | [7] 101 % of control | dose: 200.0 mg/kg/injection, schedule: Q01DX001 (ip), vehicle: saline 97 % of control | [4] 94 % of control | [8] 97 % of control | dose: 400.0 mg/kg/injection, schedule: Q01DX001 (ip), vehicle: saline 100 % of control | dose: 400.0 mg/kg/injection, schedule: Q01DX009 (ip), vehicle: Klucel (hydroxypropylcellulose) (HPC) 103 % of control | [9] 103 % of control

CCn1c(C)nc2cc(Cl)c(Br)cc21
inactive: [7] 107 % of control | [8] 110 % of control

COC(=O)C(=O)NCc1cnccn1
inactive: [10] 105 % of control | [7] 93 % of control | [11] 110 % of control | [8] 107 % of control | [12] 111 % of control | [9] 100 % of control

C[N+]1(C)CCCCC1
inactive: [13] 106 % of control | [14] 101 % of control | [15] 97 % of control | dose: 50.0 mg/kg/injection, schedule: Q04DX003 (ip), vehicle: saline 101 % of control

COC(=O)c1c2c(nc3ccccc13)-c1ccccc1C(C)(C)C2OC (stereo not given)
inactive: [3] 113 % of control | [5] 102 % of control | dose: 400.0 mg/kg/injection, schedule: Q04DX003 (ip), vehicle: Klucel (hydroxypropylcellulose) (HPC) 101 % of control

Cc1cncc2c(=O)n(-c3ccccc3)n(C)c12
inactive: [1] 93 % of control | [2] 96 % of control

Oc1ccc(O)c(Cl)c1
inactive: dose: 50.0 mg/kg/injection, schedule: Q01DX001 (ip), vehicle: saline 107 % of control | dose: 50.0 mg/kg/injection, schedule: Q04DX002 (ip), vehicle: saline 106 % of control | dose: 100.0 mg/kg/injection, schedule: Q01DX001 (ip), vehicle: Klucel (hydroxypropylcellulose) (HPC) 94 % of control | [6] 107 % of control | dose: 100.0 mg/kg/injection, schedule: Q04DX002 (ip), vehicle: saline 92 % of control | dose: 200.0 mg/kg/injection, schedule: Q01DX001 (ip), vehicle: Klucel (hydroxypropylcellulose) (HPC) 94 % of control

O=C1OC(=O)c2c(Br)c(Br)c(Br)c(Br)c21
inactive: [10] 103 % of control | [11] 97 % of control | [12] 107 % of control

Cc1cccc2cc3cccc[n+]3cc12
inactive: dose: 1.56 mg/kg/injection, schedule: Q04DX003 (ip), vehicle: saline 101 % of control | [16] 96 % of control | dose: 3.12 mg/kg/injection, schedule: Q04DX003 (ip), vehicle: saline 93 % of control | [17] 96 % of control | dose: 6.25 mg/kg/injection, schedule: Q04DX003 (ip), vehicle: saline 97 % of control | dose: 12.5 mg/kg/injection, schedule: Q04DX003 (ip), vehicle: saline 100 % of control

O=NN(CCCl)C(=O)NC(Cc1ccccc1)C(=O)O (stereo not given)
active: dose: 28.0 mg/kg/injection, schedule: Q01DX001 (ip), vehicle: gum acacia 188 % of control | dose: 42.0 mg/kg/injection, schedule: Q01DX001 (ip), vehicle: gum acacia 195 % of control | dose: 63.0 mg/kg/injection, schedule: Q01DX001 (ip), vehicle: gum acacia 256 % of control | dose: 112.0 mg/kg/injection, schedule: Q01DX001 (ip), vehicle: gum acacia 163 % of control
inactive: dose: 12.0 mg/kg/injection, schedule: Q01DX001 (ip), vehicle: gum acacia 118 % of control | dose: 168.0 mg/kg/injection, schedule: Q01DX001 (ip), vehicle: gum acacia 120 % of control

O=C(O)CC(NC(=O)CP(=O)(O)O)C(=O)O (stereo not given)
inactive: dose: 0.39 mg/kg/injection, schedule: Q01DX009 (ip), vehicle: saline 104 % of control | dose: 0.78 mg/kg/injection, schedule: Q01DX009 (ip), vehicle: saline 96 % of control | dose: 1.56 mg/kg/injection, schedule: Q01DX009 (ip), vehicle: saline 100 % of control | [16] 100 % of control | [17] 100 % of control | [13] 98 % of control | [14] 93 % of control and 94 % of control | [15] 96 % of control and 98 % of control | [10] 104 % of control and 122 % of control | [11] 117 % of control and 122 % of control | dose: 225.0 mg/kg/injection, schedule: Q01DX009 (ip), vehicle: saline 113 % of control | dose: 240.0 mg/kg/injection, schedule: Q04DX003 (ip), vehicle: saline 113 % of control | dose: 250.0 mg/kg/injection, schedule: Q01DX009 (ip), vehicle: saline 109 % of control | dose: 275.0 mg/kg/injection, schedule: Q01DX009 (ip), vehicle: saline 109 % of control | dose: 343.0 mg/kg/injection, schedule: Q04DX003 (ip), vehicle: saline 117 % of control | [12] 89 % of control | dose: 490.0 mg/kg/injection, schedule: Q04DX003 (ip), vehicle: saline 113 % of control | dose: 700.0 mg/kg/injection, schedule: Q04DX003 (ip), vehicle: saline 119 % of control

O=C(Cn1ccc(=O)[nH]c1=O)N1CCOCC1
inactive: dose: 100.0 mg/kg/injection, schedule: Q01DX009 (ip), vehicle: water 91 % of control | dose: 100.0 mg/kg/injection, schedule: Q04DX003 (ip), vehicle: water 100 % of control | dose: 200.0 mg/kg/injection, schedule: Q01DX009 (ip), vehicle: water 90 % of control | dose: 200.0 mg/kg/injection, schedule: Q04DX003 (ip), vehicle: water 92 % of control | dose: 400.0 mg/kg/injection, schedule: Q01DX009 (ip), vehicle: water 104 % of control | dose: 400.0 mg/kg/injection, schedule: Q04DX003 (ip), vehicle: water 94 % of control

C=CCNC(=S)Nc1cccc([N+](=O)[O-])c1
inactive: dose: 50.0 mg/kg/injection, schedule: Q01DX001 (ip), vehicle: carboxymethylcellulose (CMC) 111 % of control | dose: 100.0 mg/kg/injection, schedule: Q01DX001 (ip), vehicle: carboxymethylcellulose (CMC) 94 % of control | dose: 200.0 mg/kg/injection, schedule: Q01DX001 (ip), vehicle: carboxymethylcellulose (CMC) 94 % of control | dose: 400.0 mg/kg/injection, schedule: Q01DX001 (ip), vehicle: carboxymethylcellulose (CMC) 100 % of control

CC(=O)OC1CCC2(C)C(CCC3C2C(=O)C(OC(C)=O)C2(C)C3CC3OC4(CCC(C)CO4)C(C)C32)C1 (stereo not given)
inactive: dose: 100.0 mg/kg/injection, schedule: Q01DX009 (ip), vehicle: saline with Tween-80 90 % of control | dose: 200.0 mg/kg/injection, schedule: Q01DX009 (ip), vehicle: saline with Tween-80 95 % of control | dose: 400.0 mg/kg/injection, schedule: Q01DX009 (ip), vehicle: saline with Tween-80 101 % of control

S=c1nccc[nH]1
inactive: dose: 25.0 mg/kg/injection, schedule: Q01DX009 (ip), vehicle: saline with Tween-80 103 % of control | dose: 25.0 mg/kg/injection, schedule: Q04DX002 (ip), vehicle: saline with Tween-80 93 % of control | dose: 50.0 mg/kg/injection, schedule: Q01DX009 (ip), vehicle: saline with Tween-80 105 % of control | dose: 50.0 mg/kg/injection, schedule: Q04DX002 (ip), vehicle: saline with Tween-80 107 % of control | dose: 100.0 mg/kg/injection, schedule: Q04DX002 (ip), vehicle: saline with Tween-80 96 % of control

Nc1nc(O)c(NC(=O)Nc2ccccc2)c(=O)[nH]1
inactive: dose: 100.0 mg/kg/injection, schedule: Q04DX003 (ip), vehicle: gum acacia 102 % of control | dose: 200.0 mg/kg/injection, schedule: Q04DX003 (ip), vehicle: gum acacia 100 % of control | dose: 400.0 mg/kg/injection, schedule: Q04DX003 (ip), vehicle: gum acacia 105 % of control
